Laboratory results from patent US5654469A, “Acetylenes disubstituted with a 5 substituted tetrahydronaphthyl group and with an aryl or heteroaryl groups having retinoid-like biological activity” (Allergan, priority 1996, dated 1997).
One block for each compound: values may come before it.

System: ornithine decarboxylase (ODC)
Assay: ODC assay: inhibition of TPA induction of ornithine decarboxylase (retinoid-like activity)
Assay type: biochemical
Details: concentration of the test compound which causes 80% inhibition in the ODC assay (TPA-induced ODC)
Text: The retinoic acid-like activity of these compounds is confirmed through the classic measure of retinoic acid activity involving the effects of retinoic acid on ornithine decarboxylase. The original work on the correlation between retinoic acid and decrease in cell proliferation was done by Verma & Boutwell, Cancer Research, 1977, 37,2196-2201. That reference discloses that ornithine decarboxylase (ODC) activity increased precedent to polyamine biosynthesis. It has been established elsewhere that increases in polyamine synthesis can be correlated or associated with cellular proliferation. Thus, if ODC activity could be inhibited, cell hyperproliferation could be modulated. Although all cases for ODC activity increases are unknown, it is known that 12-0-tetradecanoylphorbol-13-acetate (TPA) induces ODC activity. Retinoic acid inhibits this induction of ODC activity by TPA. […] Activity of exemplary compounds of the present invention in the above-described ODC assay is disclosed in Table 2 which provides the IC80 concentration for the respective exemplary compound. ("IC80 " is that concentration of the test compound which causes 80% inhibition in the ODC assay. By analogy, "IC60, for example, is that concentration of the test compound which causes 60% inhibition in the ODC assay.)

- IC80 conc: 7.29 nmols
SMILES: CCOC(=O)c1ccc(C#Cc2ccc3c(c2)C(C)(C)CC[C@@H]3O[C@@H]2CCCCO2)cc1 (relative stereo) [Compound 13, Ethyl 4-[[5,6,7,8-tetrahydro-5(SR)-(2'(RS)-tetrahydropyranyloxy)-8,8-dimethylnaphth-2-yl]ethynyl]benzoate]

- IC80 conc: 2.80 nmols
SMILES: CCOC(=O)c1ccc(C#Cc2ccc3c(c2)C(C)(C)CC[C@@H]3O[C@H]2CCCCO2)cc1 (relative stereo) [Compound 14]

- IC80 conc: 0.09 nmols
SMILES: CCOC(=O)c1ccc(C#Cc2ccc3c(c2)[C@H](O[C@@H]2CCCCO2)CCC3(C)C)cc1 (relative stereo) [Compound 15, Ethyl 4-[[5,6,7,8-tetrahydro-5 (RS)-(2'(RS)-tetrahydropyranyloxy)-8,8-dimethylnaphth-3-yl]ethynyl]benzoate]

- IC80 conc: 0.60 nmols
SMILES: CCOC(=O)c1ccc(C#Cc2ccc3c(c2)[C@H](O[C@H]2CCCCO2)CCC3(C)C)cc1 (relative stereo) [Compound 16, Ethyl 4-[[5,6,7,8-tetrahydro-5(RS)-(2'(SR)-tetrahydropyranyloxy)-8,8-dimethylnaphth-3-yl]ethynyl]benzoate]

- IC80 conc: 0.35 nmols
SMILES: CCOC(=O)c1ccc(C#Cc2ccc3c(c2)[C@H](O[C@@H]2CCCCO2)CCC3(C)C)nc1 (relative stereo) [Compound 17, Ethyl 6-[[5,6,7,8-tetrahydro-5(RS)-(2'(RS)-tetrahydropyranyloxy)-8,8-dimethylnaphth-3-yl]ethynyl]nicotinate]

- IC80 conc: 2.20 nmols
SMILES: CCOC(=O)c1ccc(C#Cc2ccc3c(c2)[C@H](O[C@H]2CCCCO2)CCC3(C)C)nc1 (relative stereo) [Compound 18]

- IC80 conc: 4.20 nmols
SMILES: CC1(C)CC[C@H](O[C@@H]2CCCCO2)c2ccc(C#Cc3ccc(C(=O)O)cc3)cc21 (relative stereo) [Compound 32, 4-[[5,6,7,8-tetrahydro-5(SR)-(2'(RS)-tetrahydropyranyloxy)-8,8-dimethylnaphth-2-yl]ethynyl]benzoic acid]

- IC80 conc: 0.08 nmols
SMILES: CC1(C)CC[C@@H](O[C@@H]2CCCCO2)c2cc(C#Cc3ccc(C(=O)O)cc3)ccc21 (relative stereo) [Compound 33]

- IC80 conc: 2.30 nmols
SMILES: CC1(C)CC[C@@H](O[C@H]2CCCCO2)c2cc(C#Cc3ccc(C(=O)O)cc3)ccc21 (relative stereo) [Compound 34, 4-[[5,6,7,8-tetrahydro-5(RS)-(2'(SR)-tetrahydropyranyloxy)-8,8-dimethylnaphth-3-yl]ethynyl]benzoic acid]

- IC80 conc: < 3 nmols
SMILES: CC1(C)CC[C@H](O[C@H]2CCCCO2)c2ccc(C#Cc3ccc(C(=O)O)cc3)cc21 (relative stereo) [Compound 35]

- IC80 conc: 18.70 nmols
SMILES: CC1(C)CC[C@@H](O[C@@H]2CCCCO2)c2cc(C#Cc3ccc(C(=O)O)cn3)ccc21 (relative stereo) [Compound 36]

- IC80 conc: 9.30 nmols
SMILES: CC1(C)CCC(O)c2cc(C#Cc3ccc(C(=O)O)cc3)ccc21 (stereo not drawn) [Compound 41, 4-[(5,6,7,8-tetrahydro-5-hydroxy-8,8-dimethylnaphth-3-yl)ethynyl]benzoic acid]

- IC80 conc: 0.66 nmols
SMILES: CC1(C)CCC(O)c2ccc(C#Cc3ccc(C(=O)O)cc3)cc21 (stereo not drawn) [Compound 42, 4-[(5,6,7,8-tetrahydro-5-hydroxy-8,8-dimethylnaphth-2-yl)ethynyl]benzoic acid]

Second part, the compound before the results:

SMILES: CCOC(=O)c1ccc(C#Cc2ccc3c(c2)C(OC2CCCCC2)CCC3(C)C)cc1 (stereo not drawn) [Compound 6, Ethyl 4-[(5-cyclohexyloxy-5,6,7,8-tetrahydro-8,8-di-methyl-naphth-3-yl)ethynyl]benzoate]
- IC80 conc: 3.83 nmols

SMILES: CCOC(=O)c1ccc(C#Cc2ccc3c(c2)C(C)(C)CCC3O)cc1 (stereo not drawn) [Compound 9, Ethyl 4-[(5,6,7,8-tetrahydro-5-hydroxy-8,8-dimethyl-naphth-2-yl)ethynyl]benzoate]
- IC80 conc: 0.91 nmols

SMILES: CCOC(=O)c1ccc(C#Cc2ccc3c(c2)C(O)CCC3(C)C)cc1 (stereo not drawn) [Compound 10, Ethyl 4-[(5,6,7,8-tetrahydro-5-hydroxy-8,8-dimethylnaphth-3-yl)ethynyl]benzoate]
- IC80 conc: 3.18 nmols

SMILES: CCOC(=O)c1ccc(C#Cc2ccc3c(c2)C(OCOC)CCC3(C)C)cc1 (stereo not drawn) [Compound 12]
- IC80 conc: 0.40 nmols

SMILES: COCOC1CCC(C)(C)c2ccc(C#Cc3ccc(C(=O)O)cc3)cc21 (stereo not drawn) [Compound 43]
- IC80 conc: 0.81 nmols

SMILES: CCOC(=O)c1ccc(C#Cc2ccc3c(c2)C(C)(C)CCC3(C#N)O[Si](C)(C)C)cc1 (stereo not drawn) [Compound 107, Ethyl 4-[(5-cyano-5,6,7,8-tetrahydro-8,8-dimethyl-5-trimethylsiloxynaphth-2-yl)ethynyl]benzoate]
- IC80 conc: 1.43 nmols

SMILES: CCOC(=O)c1ccc(C#Cc2ccc3c(c2)C(C)(C)CCC3O[Si](C)(C)C)cc1 (stereo not drawn) [Compound 111, Ethyl 4-[(5,6,7,8-tetrahydro-8,8-dimethyl-5-trimethylsiloxynaphth-2-yl)ethynyl]benzoate]
- IC80 conc: 3.40 nmols

SMILES: CCOC(=O)CC1(O)CCC(C)(C)c2cc(C#Cc3ccc(C(=O)OCC)cc3)ccc21 (stereo not drawn) [Compound 113, Ethyl 4-[(5,6,7,8-tetrahydro-5-hydroxy-8,8-dimethyl-5-carboethoxymethylnaphth-2-yl)ethynyl]benzoate]
- IC80 conc: 1.33 nmols

SMILES: CCOC(=O)CC1(O)CCC(C)(C)c2cc(C#Cc3ccc(C(=O)OCC[Si](C)(C)C)cc3)ccc21 (stereo not drawn) [Compound 117, Trimethylsilylethyl 4-[(5,6,7,8-tetrahydro-5-hydroxy-8,8-dimethyl-5-carboethoxymethylnaphth-2-yl)ethynyl]benzoate]
- IC80 conc: 8.60 nmols

SMILES: CCOC(=O)CC1(O)CCC(C)(C)c2ccc(C#Cc3ccc(C(=O)OCC)cc3)cc21 (stereo not drawn) [Compound 119, Ethyl 4-[(5-hydroxy-8,8-dimethyl-5-carhoethoxymethyl-5,6,7,8-tetrahydronapth-3-yl)ethynyl]benzoate]
- IC80 conc: 1.0 nmols

SMILES: CCOC(=O)c1ccc(C#Cc2ccc3c(c2)C(C)(C)CCC3SC(C)=O)cc1 (stereo not drawn) [Compound 143, Ethyl 4-[(5,6,7,8-tetrahydro-8,8-dimethyl-5-thioacetylnaphth-2-yl)ethynyl]benzoate]
- IC80 conc: 0.15 nmols
